Assays:
Plutella xylostella = assay: Test of efficacy on Plutella xylostella (cabbage leaf dip); type: in vivo; conditions: foliar, 72 h, cabbage leaves dipped 30 seconds, second instar larvae, after 3 days, 25° C., read-out: insecticidal rate
Method: (§1) 5 parts of the imidazo[1,2-a]pyridine compound of the present invention, 93.6 parts of dimethylformamide, and 1.4 parts of polyoxyethylene alkyl aryl ether were mixed and dissolved to prepare emulsion (I) containing 5% of the active ingredient.
(§2) An insecticidal rate was calculated according to the following expression: […]
The emulsion (I) was diluted with water such that the concentration of the compound of the present invention was 125 ppm. Cabbage leaves were dipped in the dilution for 30 seconds. The resulting cabbage leaves were placed in a petri dish. Five second instar larvae of Plutella xylostella were released thereto. The petri dish was placed in a thermostat chamber having a temperature of 25° C. and a humidity of 60%. Life and death were determined after 3 days from the release of the insects, and the insecticidal rate was calculated. The test was conducted in duplicate.

Phyllotreta striolata = assay: Test of efficacy on Phyllotreta striolata (spray on Qing geng cai seedlings); type: in vivo; conditions: 168 h, 125 ppm sprayed to Qing geng cai seedlings, adults, after 7 days, 25° C., read-out: insecticidal rate
Method: as §1, §2
The emulsion (I) was diluted with water such that the concentration of the compound of the present invention was 125 ppm to prepare a test chemical. The test chemical was sprayed to Qing geng cai seedlings (at the seventh true leaf stage) planted in 10-cm pots. The Qing geng cai seedlings were dried in air and then placed in a plastic cup. Ten Phyllotreta striolata adults were released thereto. The plastic cup was stored in a thermostat chamber having a temperature of 25° C. and a humidity of 65%. Life and death were determined after 7 days from the release of the insects, and the insecticidal rate was calculated. The test was conducted in duplicate.

SMILES	pest or weed control at 125 ppm (Plutella xylostella) [%]	pest or weed control at 125 ppm (Phyllotreta striolata) [%]	melting point [°C]
CCS(=O)(=O)c1c(-c2ncc(-c3ccc(OC(F)(F)F)c(Cl)c3)n2C)nc2ccc(C(F)(F)F)cn12 [a-7]	≥ 80	≥ 80	–
CCS(=O)(=O)c1c(-c2cn(/C=C(\F)C(F)(F)C(F)(F)F)cn2)nc2ccc(C(F)(F)F)cn12 [a-11]	≥ 80	≥ 80	–
CCS(=O)(=O)c1c(-c2ncc(-c3ccc(OC(F)(F)C(F)F)cc3)n2C)nc2ccc(C(F)(F)F)cn12 [a-1]	≥ 80	–	–
CCS(=O)(=O)c1c(-c2ncn(-c3ccc(OC(F)(F)F)cc3)n2)nc2ccc(C(F)(F)F)cn12 [a-6]	≥ 80	≥ 80	–
CCS(=O)(=O)c1c(-c2ncc(C=C(Cl)C(F)(F)F)n2C)nc2cc(Cl)ccn12 [a-22]	≥ 80	≥ 80	–
CCS(=O)(=O)c1c(-c2ncc(-c3ccc(OC(F)(F)F)cc3)n2C)nc2cc(C(F)(F)F)ccn12 [a-10]	≥ 80	≥ 80	–
CCS(=O)(=O)c1c(-c2ncc(C=C(F)C(F)(F)C(F)(F)F)n2C)nc2cc(C(F)(F)F)ccn12 [a-19]	≥ 80	≥ 80	–
CCS(=O)(=O)c1c(-c2ncc(C=C(Cl)Cl)n2C)nc2ccc(C(F)(F)F)cn12 [a-15]	–	–	236 to 238
CCS(=O)(=O)c1c(-c2ncc(-c3ccc(C(F)(F)F)nc3)n2C)nc2ccc(C(F)(F)F)cn12 [a-2]	≥ 80	≥ 80	–
CCS(=O)(=O)c1c(-n2cc(-c3ccc(OC(F)(F)F)cc3)cn2)nc2ccc(C(F)(F)F)cn12 [a-9]	≥ 80	–	–
CCS(=O)(=O)c1c(-c2ncc(/C=C(/F)C(F)(F)C(F)(F)F)n2C)nc2ccc(C(F)(F)F)cn12 [a-16]	–	≥ 80	–
CCS(=O)(=O)c1c(-c2ncc(C=C(Cl)C(F)(F)F)n2C)nc2cc(C3CC3)ccn12 [a-21]	≥ 80	≥ 80	–
CCS(=O)(=O)c1c(-c2ncc(/C=C/C(F)(F)C(F)(F)F)n2C)nc2ccc(C(F)(F)F)cn12 [a-13]	≥ 80	≥ 80	–
CCS(=O)(=O)c1c(-c2ncc(-c3ccc(C(F)(F)F)c(Cl)c3)n2C)nc2ccc(C(F)(F)F)cn12 [a-8]	≥ 80	–	–
CCS(=O)(=O)c1c(-c2cn(-c3ccc(OC(F)(F)F)cc3)cn2)nc2ccc(C(F)(F)F)cn12 [a-5]	≥ 80	≥ 80	–
CCS(=O)(=O)c1c(-c2ncc(/C=C(\F)C(F)(F)C(F)(F)F)n2C)nc2ccc(C(F)(F)F)cn12 [a-17]	≥ 80	≥ 80	–
CCS(=O)(=O)c1c(-c2ncc(C=C(F)C(F)(F)C(F)(F)F)n2C)nc2ccc(C(F)(F)F)cn12 [a-20]	≥ 80	≥ 80	–
CCS(=O)(=O)c1c(-c2ncc(C=C(Br)Br)n2C)nc2ccc(C(F)(F)F)cn12 [a-14]	–	–	233 to 235
CCS(=O)(=O)c1c(-c2ncc(C=C(Cl)C(F)(F)F)n2C)nc2ccc(Cl)cn12 [a-23]	≥ 80	≥ 80	–
CCS(=O)(=O)c1c(-c2ncc(C(F)C(F)(C(F)(F)F)C(F)(F)F)n2C)nc2ccc(C(F)(F)F)cn12 (centres unmarked) [a-4]	≥ 80	–	–
CCS(=O)(=O)c1c(-c2ncc(-c3ccc(OC(F)(F)F)cc3)n2C)nc2ccc(C(F)(F)F)cn12 [a-3, 3-(ethylsulfonyl)-2-(1-methyl-5-(4-(trifluoromethoxy)phenyl)-1H-imidazol-2-yl)-6-(trifluoromethyl)imidazo[1,2-a]pyridine]	≥ 80	≥ 80	–
CCS(=O)(=O)c1c(-c2ncc(/C=C(\Cl)C(F)(F)F)n2C)nc2cc(C(F)(F)F)ccn12 [a-24]	≥ 80	–	–
CCS(=O)(=O)c1c(-c2cn(CC(F)(F)C(F)(F)C(F)(F)F)cn2)nc2ccc(C(F)(F)F)cn12 [a-12]	≥ 80	≥ 80	–
